ChEMBL document CHEMBL1159104, “Potent transglutaminase inhibitors, aryl beta-aminoethyl ketones” (Bioorg Med Chem Lett, 2010)

Target: T1, Protein-glutamine gamma-glutamyltransferase (Cavia porcellus, UniProt Q7M0F8)
T1 sequence (Q7M0F8 whole entry): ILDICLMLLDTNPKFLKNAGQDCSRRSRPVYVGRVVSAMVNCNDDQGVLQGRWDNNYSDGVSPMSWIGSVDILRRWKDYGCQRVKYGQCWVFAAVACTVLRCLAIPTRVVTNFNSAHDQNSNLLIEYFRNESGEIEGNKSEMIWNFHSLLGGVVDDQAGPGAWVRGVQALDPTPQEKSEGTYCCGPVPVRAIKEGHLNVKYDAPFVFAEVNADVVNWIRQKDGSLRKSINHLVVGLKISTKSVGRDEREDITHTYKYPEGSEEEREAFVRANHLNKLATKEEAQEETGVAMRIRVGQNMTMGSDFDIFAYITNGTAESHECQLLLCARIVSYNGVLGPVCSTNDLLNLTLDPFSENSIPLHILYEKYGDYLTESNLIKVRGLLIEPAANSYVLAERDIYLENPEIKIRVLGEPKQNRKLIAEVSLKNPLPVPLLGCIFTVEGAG
Assay: Inhibition of guinea pig liver transglutaminase

Row | Compound | IC50 [µM]
1 | CC(C)N(CCO)CCC(=O)c1ccc(F)cc1 | 10
2 | CN(CCC(=O)c1ccc2ccccc2c1)Cc1ccccc1 | 21
3 | O=C(CCN(CCO)CCO)c1ccc2ccccc2c1 | 22
4 | CC(C)N(CCO)CCC(=O)c1ccc(C#N)cc1 | 6.1
5 | CCN(CCC(=O)c1ccc(F)cc1)Cc1ccccc1 | 13
6 | CC(C)N(CCC(=O)c1ccc2ccccc2c1)Cc1ccccc1 | 4
7 | CC(C)N(CCO)CCC(=O)c1ccc2ccccc2c1 | 16
8 | CN(CCC(=O)c1ccc(Cc2ccccc2)cc1)Cc1ccccc1 | 26
9 | CN(CCC(=O)c1ccc(Oc2ccccc2)cc1)Cc1ccccc1 | 18
10 | CN(CCO)CCC(=O)c1nccs1 | 4.7
11 | O=C(CCN(CCO)Cc1ccccc1)c1ccccc1 | 11
12 | CC(C)N(CCC(=O)c1ccc(F)cc1)Cc1ccccc1 | 10
13 | CC(C)N(CCO)CCC(=O)c1ccccc1 | 10
14 | CC(C)(C)N(CCO)CCC(=O)c1ccc(C#N)cc1 | 10
15 | CC(C)N(CCC(=O)c1ccccc1)Cc1ccccc1 | 5.6
16 | CC(C)N(CCC(=O)c1ccc(Oc2ccccc2)cc1)Cc1ccccc1 | 12
17 | CCCCN(CCO)CCC(=O)c1ccc(Oc2ccccc2)cc1 | 7.4

These reach a lower IC50. Values come first.

Row | IC50 [µM] | Compound
18 | 3.6 | CC(C)(C)N(CCC(=O)c1ccc(Cc2ccccc2)cc1)Cc1ccccc1
19 | 2.6 | CC(C)N(CCC(=O)c1ccc(Cc2ccccc2)cc1)Cc1ccccc1
20 | 2.3 | CCCCN(CCO)CCC(=O)c1ncc(C)s1
21 | 2.2 | CC(C)N(CCO)CCC(=O)c1ccc(Cl)cc1
22 | 1.9 | CCCCN(CCO)CCC(=O)c1ccc2c(Cl)cccc2c1
23 | 1.8 | Cc1cnc(C(=O)CCN(C)Cc2ccccc2)s1
24 | 1.7 | CC(C)(C)N(CCC(=O)c1ccccc1)Cc1ccccc1
25 | 1.7 | CC(C)N(CCC(=O)c1ccc2c(Cl)cccc2c1)Cc1ccccc1
26 | 1.7 | CC(C)(C)N(CCC(=O)c1ccc(C#N)cc1)Cc1ccccc1
27 | 1.5 | O=C(CCN(CCO)Cc1ccccc1)c1ccc2c(Cl)cccc2c1
28 | 1.4 | CC(C)N(CCC(=O)c1ccc(Cl)cc1)Cc1ccccc1
29 | 1.1 | CC(C)(C)N(CCC(=O)c1ccc(F)cc1)Cc1ccccc1
30 | 0.85 | Cc1cnc(C(=O)CCN(Cc2ccccc2)C(C)C)s1
31 | 0.7 | CC(C)(C)N(CCC(=O)c1ccc(Cl)cc1)Cc1ccccc1
32 | 0.59 | CC(C)N(CCC(=O)c1ccc(C#N)cc1)Cc1ccccc1
